Source: patent US8134015B2, “Compound inhibiting in vivo phosphorous transport and medicine containing the same” (Kyowa Hakko Kirin Co., Ltd., priority 2003, dated 2012)

What was measured:
human NaPi-2a = target: T1, human NaPi-2a (Homo sapiens, UniProt Q06495); test: Sodium-dependent phosphate uptake of Xenopus oocytes which expressed NaPi-2a (32P); format: cell-based; conditions: phosphate uptake, Xenopus oocytes expressing human NaPi-2a; five concentration levels
T1 construct: expressed in transfected cells
T1 sequence (Q06495 1-639): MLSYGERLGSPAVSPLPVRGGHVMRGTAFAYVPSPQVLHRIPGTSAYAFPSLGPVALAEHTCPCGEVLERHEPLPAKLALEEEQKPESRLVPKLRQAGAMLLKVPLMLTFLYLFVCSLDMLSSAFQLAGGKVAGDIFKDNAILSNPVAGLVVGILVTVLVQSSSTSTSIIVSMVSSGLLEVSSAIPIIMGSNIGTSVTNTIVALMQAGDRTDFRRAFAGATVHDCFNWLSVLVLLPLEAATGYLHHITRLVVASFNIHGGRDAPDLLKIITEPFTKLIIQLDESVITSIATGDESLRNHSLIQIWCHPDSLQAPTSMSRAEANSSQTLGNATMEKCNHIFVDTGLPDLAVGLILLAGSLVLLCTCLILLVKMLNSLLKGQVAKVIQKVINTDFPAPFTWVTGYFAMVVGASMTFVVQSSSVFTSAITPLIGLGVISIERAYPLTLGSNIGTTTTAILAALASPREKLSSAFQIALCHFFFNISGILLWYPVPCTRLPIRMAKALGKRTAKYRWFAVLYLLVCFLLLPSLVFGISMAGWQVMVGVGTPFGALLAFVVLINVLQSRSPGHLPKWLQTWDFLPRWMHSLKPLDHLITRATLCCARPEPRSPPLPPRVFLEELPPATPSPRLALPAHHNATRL
Source text: Experiment of Sodium-Dependent Phosphate Uptake of Xenopus oocytes which Expressed NaPi-2a
In the test, a group with the addition of choline chloride (Choline Cl) was used as a negative control for nonspecific uptake, and PFA (phosphonoformic acid) was used as a positive control for phosphate transport inhibition.

rat NaPi-2b = target: T2, rat NaPi-2b (Rattus norvegicus, UniProt Q9JJ09); test: Sodium-dependent phosphate uptake of Xenopus oocytes which expressed NaPi-2b (32P); format: cell-based; conditions: Xenopus oocytes expressing rat NaPi-2b, 32P radioactive phosphorus; read-out: IC50 (phosphate uptake inhibitory activity)
T2 construct: expressed in transfected cells; host or cells: Xenopus oocytes injected with cRNA
T2 sequence (Q9JJ09 1-695): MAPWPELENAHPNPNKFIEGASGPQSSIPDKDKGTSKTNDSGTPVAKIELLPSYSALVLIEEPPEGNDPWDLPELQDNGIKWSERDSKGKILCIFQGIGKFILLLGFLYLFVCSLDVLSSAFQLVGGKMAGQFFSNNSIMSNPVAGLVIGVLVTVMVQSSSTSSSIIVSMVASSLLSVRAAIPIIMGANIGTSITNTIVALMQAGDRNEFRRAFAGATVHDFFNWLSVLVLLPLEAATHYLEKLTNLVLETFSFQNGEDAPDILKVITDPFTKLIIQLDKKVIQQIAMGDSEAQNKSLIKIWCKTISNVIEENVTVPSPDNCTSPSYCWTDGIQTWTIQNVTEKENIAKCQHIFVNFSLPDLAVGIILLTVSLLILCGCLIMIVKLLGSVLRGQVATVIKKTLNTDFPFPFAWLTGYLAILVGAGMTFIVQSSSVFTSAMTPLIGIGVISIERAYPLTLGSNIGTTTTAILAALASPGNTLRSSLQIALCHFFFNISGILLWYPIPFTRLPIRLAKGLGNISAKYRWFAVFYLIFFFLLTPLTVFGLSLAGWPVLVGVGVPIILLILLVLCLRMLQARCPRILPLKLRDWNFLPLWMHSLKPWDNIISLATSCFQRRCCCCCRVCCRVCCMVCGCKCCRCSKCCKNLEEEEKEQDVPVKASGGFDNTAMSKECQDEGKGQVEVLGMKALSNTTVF
Procedure, shortened: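 Rat small-intestine NaPi-2b cRNA injected into Xenopus oocytes, expressed for 2 days. Sodium-dependent phosphate uptake measured with 32P; % inhibition at 300 and 100 μM taken from the same inhibition curve.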

Row | SMILES | IC50 (human NaPi-2a) [µM] | IC50 (rat NaPi-2b) [µM]
1 | O=C(Nc1sc2c(c1C(=O)N/N=C/c1ccc(F)cc1)CCC2)c1cccc(CN2CCC(CO)CC2)c1 [Compound 818, N-[3-(4-Fluoro-benzylidene-hydrazinocarbonyl)-5,6-dihydro-4H-cyclopenta[b]thiophen-2-yl]-3-(4-hydroxymethyl-piperidin-1-ylmethyl)-benzamide] | 31.4 | 7.38
2 | Cc1ccc(/C=N/NC(=O)c2c(C)csc2NC(=O)c2cccc(CN(C)C)c2)cc1C [Compound 822, 3-Dimethylaminomethyl-N-[3-(3,4-dimethyl-benzylidene-hydrazinocarbonyl)-4-methyl-thiophen-2-yl]-benzamide] | 18 | 5.9
3 | Cc1ccc(/C=N/NC(=O)c2c(C)csc2NC(=O)c2cccc(CN3CCN(c4ncccn4)CC3)c2)cc1 [Compound 827, N-[4-Methyl-3-(4-methyl-benzylidene-hydrazinocarbonyl)-thiophen-2-yl]-3-(4-pyrimidin-2-yl-piperazin-1-ylmethyl)-benzamide] | 24.4 | 3.5
4 | Cc1csc(NC(=O)c2cccc(CN3CCN(c4ncccn4)CC3)c2)c1C(=O)N/N=C/c1ccc(Cl)c(C(F)(F)F)c1 [Compound 830, N-[3-(4-Chloro-3-trifluoromethyl-benzylidene-hydrazinocarbonyl)-4-methyl-thiophen-2-yl]-3-(4-pyrimidin-2-yl-piperazin-1-ylmethyl)-benzamide] | 10.7 | 4.81
5 | COc1ccc(/C=N/NC(=O)c2c(C)csc2NC(=O)c2cccc(CN3CCN(c4ncccn4)CC3)c2)cc1 [Compound 831, N-[3-(4-Methoxy-benzylidene-hydrazinocarbonyl)-4-methyl-thiophen-2-yl]-3-(4-pyrimidin-2-yl-piperazin-1-ylmethyl)-benzamide] | 28.8 | 3.88
6 | Cc1ccc(/C=N/NC(=O)c2c(C)csc2NC(=O)c2cccc(CN3CCC4(CC3)OCCO4)c2)cc1 [Compound 833, 3-(1,4-Dioxa-8-aza-spiro[4,5]dec-8-ylmethyl]-N-[4-methyl-3-(4-methyl-benzylidene-hydrazinocarbonyl)-thiophen-2-yl]-benzamide] | 38.1 | 7.89
7 | Cc1csc(NC(=O)c2cccc(CN3CCC4(CC3)OCCO4)c2)c1C(=O)N/N=C/c1ccc(F)cc1 [Compound 834, 3-(1,4-Dioxa-8-aza-spiro[4,5]dec-8-ylmethyl]-N-[3-(4-fluoro-benzylidene-hydrazinocarbonyl)-4-methyl-thiophen-2-yl]-benzamide] | 52.1 | 19
8 | Cc1csc(NC(=O)c2cccc(CN3CCC4(CC3)OCCO4)c2)c1C(=O)N/N=C/c1cccc(F)c1 [Compound 835, 3-(1,4-Dioxa-8-aza-spiro[4,5]dec-8-ylmethyl]-N-[3-(3-fluoro-benzylidene-hydrazinocarbonyl)-4-methyl-thiophen-2-yl]-benzamide] | 11 | 6.46
9 | Cc1csc(NC(=O)c2cccc(CN3CCC4(CC3)OCCO4)c2)c1C(=O)N/N=C/c1ccc(Cl)c(C(F)(F)F)c1 [Compound 836, N-[3-(4-Chloro-3-trifluoromethyl-benzylidene-hydrazinocarbonyl)-4-methyl-thiophen-2-yl]-3-(1,4-dioxa-8-aza-spiro[4,5]dec-8-ylmethyl]-benzamide] | 10.2 | 0.77
10 | CCN(CC)CCN(CCN(CC)CC)Cc1cccc(C(=O)Nc2scc(C)c2C(=O)N/N=C/c2ccc(C)cc2)c1 [Compound 839, 3-{[Bis-(2-diethylamino-ethyl)-amino]-methyl}-N-[4-methyl-3-(4-methyl-benzylidene-hydrazinocarbonyl)-thiophen-2-yl]-benzamide] | 23.2 | 5.04
11 | CCN(CC)CCN(CCN(CC)CC)Cc1cccc(C(=O)Nc2scc(C)c2C(=O)N/N=C/c2ccc(F)cc2)c1 [Compound 840, 3-{[Bis-(2-diethylamino-ethyl)-amino]-methyl}-N-[3-(4-fluoro-benzylidene-hydrazinocarbonyl)-4-methyl-thiophen-2-yl]-benzamide] | 34.1 | 6.95
12 | CCN(CC)CCN(CCN(CC)CC)Cc1cccc(C(=O)Nc2scc(C)c2C(=O)N/N=C/c2cccc(F)c2)c1 [Compound 841, 3-{[Bis-(2-diethylamino-ethyl)-amino]-methyl}-N-[3-(3-fluoro-benzylidene-hydrazinocarbonyl)-4-methyl-thiophen-2-yl]-benzamide] | 19.9 | < 3

Second part, the compound after the results:

Row | IC50 (human NaPi-2a) [µM] | IC50 (rat NaPi-2b) [µM] | SMILES
13 | 8.19 | 3.22 | Cc1csc(NC(=O)c2cccc(CN(C)C)c2)c1C(=O)N/N=C/c1ccc(Cl)c(C(F)(F)F)c1 [Compound 824, N-[3-(4-Chloro-3-trifluoromethyl-benzylidene-hydrazinocarbonyl)-4-methyl-thiophen-2-yl]-3-dimethylaminomethyl-benzamide]
14 | 10 | 9.33 | Cc1csc(NC(=O)c2cccc(CN3CCN(c4ncccn4)CC3)c2)c1C(=O)N/N=C/c1ccc(F)cc1 [Compound 828, N-[3-(4-Fluoro-benzylidene-hydrazinocarbonyl)-4-methyl-thiophen-2-yl]-3-(4-pyrimidin-2-yl-piperazin-1-ylmethyl)-benzamide]
15 | < 3 | 3.91 | Cc1csc(NC(=O)c2cccc(CN3CCN(c4ncccn4)CC3)c2)c1C(=O)N/N=C/c1cccc(F)c1 [Compound 829, N-[3-(3-Fluoro-benzylidene-hydrazinocarbonyl)-4-methyl-thiophen-2-yl]-3-(4-pyrimidin-2-yl-piperazin-1-ylmethyl)-benzamide]
16 | 6.4 | 4.97 | Cc1ccc(/C=N/NC(=O)c2c(C)csc2NC(=O)c2cccc(CN3CCC4(CC3)OCCO4)c2)cc1C [Compound 832, N-[3-(3,4-Dimethyl-benzylidene-hydrazinocarbonyl)-4-methyl-thiophen-2-yl]-3-(1,4-dioxa-8-aza-spiro[4,5]dec-8-ylmethyl)-benzamide]
17 | 10.2 | < 3 | CCN(CC)CCN(CCN(CC)CC)Cc1cccc(C(=O)Nc2scc(C)c2C(=O)N/N=C/c2ccc(C)c(C)c2)c1 [Compound 838, 3-{[Bis-(2-diethylamino-ethyl)-amino]-methyl}-N-[3-(3,4-dimethyl-benzylidene-hydrazinocarbonyl)-4-methyl-thiophen-2-yl]-benzamide]
18 | < 3 | < 3 | Cc1ccc(/C=N/NC(=O)c2c(NC(=O)c3cccc(CN(CC(C)O)CC(C)O)c3)sc(C)c2C)cc1 (stereo not drawn) [Compound 845, 3-{[Bis-(2-hydroxy-propyl)-amino]-methyl}-N-[4,5-dimethyl-3-(4-methyl-benzylidene-hydrazinocarbonyl)-thiophen-2-yl]-benzamide]
19 | < 3 | < 3 | Cc1sc(NC(=O)c2cccc(CN(CC(C)O)CC(C)O)c2)c(C(=O)N/N=C/c2ccc(F)cc2)c1C (stereo not drawn) [Compound 846, 3-{[Bis-(2-hydroxy-propyl)-amino]-methyl}-N-[3-(4-fluoro-benzylidene-hydrazinocarbonyl)-4,5-dimethyl-thiophen-2-yl]-benzamide]
20 | < 1 | 0.46 | CCN(CC)CCN(C)Cc1cccc(C(=O)Nc2ccc(N3CCCCC3)cc2C(=O)N/N=C/c2ccc(C)c(C)c2)c1 [Compound 858, 3-{[(2-Diethylamino-ethyl)-methyl-amino]-methyl}-N-[2-(3,4-dimethyl-benzylidene-hydrazinocarbonyl)-4-piperidin-1-ylphenyl]-benzamide]
21 | 1.6 | 0.39 | CCN(CC)CCN(C)Cc1cccc(C(=O)Nc2ccc(N3CCCCC3)cc2C(=O)N/N=C/c2ccc(C)cc2)c1 [Compound 859, 3-{[(2-Diethylamino-ethyl)-methyl-amino]-methyl}-N-[2-(4-methyl-benzylidene-hydrazinocarbonyl)-4-piperidin-1-yl-phenyl]-benzamide]
